From patent US20110039721A1, “METHOD FOR PREDICTION ABOUT CARCINOGENICITY OF SUBSTANCE IN RODENT” (Chemicals Evaluation and Research Institute, priority 2007, published 2011)

Legend:
rodent = conditions: in vivo; cited from earlier work
liver = conditions: in vivo; cited from earlier work
[1] = system: mRNA expressed from the genes (A) to (D) in rat liver; assay: Behavior of genes (mRNA expression level, oligo-DNA microarray) in rat liver after 28-day oral administration; format: in vivo; conditions: mRNA vs vehicle control group
In short: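 Rat liver RNA after 28 days of daily gavage dosing (male F344, 5 weeks old, four per group). A change reaching 1.5-fold, or 1/1.5, against solvent control scores as significant; opposite direction versus another carcinogen scores as not significant.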

[2] = gene group (A), Unigene No. Rn.167075
[3] = gene group (C), Unigene No. Rn.120914

In the case of `ClC1=C(Cl)C2(Cl)C3C4C=CC(C4)C3C1(Cl)C2(Cl)Cl` (centres unmarked) [TS015, Aldrin], the Carcinogenicity (rodent) is listed as “C+”, the Liver carcinogenicity (liver) is listed as “Cr−” and the “Behavior of gene caused by administration of chemical substance, Gene No. 4846” value ([1]; gene group (A), Unigene No. Rn.144554) is listed as “−”. The “Behavior of gene caused by administration of chemical substance, Gene No. 2026” value [1, 2] was “−”, the “Behavior of gene caused by administration of chemical substance, Gene No. 4218” value [1, 2] was “−” and the “Behavior of gene caused by administration of chemical substance, Gene No. 6182” value ([1]; gene group (A), Unigene No. Rn.5834) was “+”. For the same compound, the “Behavior of gene caused by administration of chemical substance, Gene No. 5600” value ([1]; gene group (A), Unigene No. Rn.9836) was “−”, the “Behavior of gene caused by administration of chemical substance, Gene No. 1494” value ([1]; gene group (B), Unigene No. Rn.1430) was “−” and the “Behavior of gene caused by administration of chemical substance, Gene No. 2045” value ([1]; gene group (B), Unigene No. Rn.19329) was “+”. For the same compound, the “Behavior of gene caused by administration of chemical substance, Gene No. 2203” value ([1]; gene group (B), Unigene No. Rn.21240) was “+”, the “Behavior of gene caused by administration of chemical substance, Gene No. 533” value ([1]; gene group (C), Unigene No. Rn.106184) was “−” and the “Behavior of gene caused by administration of chemical substance, Gene No. 725” value ([1]; gene group (C), Unigene No. Rn.108075) was “−”. The “Behavior of gene caused by administration of chemical substance, Gene No. 1163” value ([1]; gene group (C), Unigene No. Rn.11766) was “−”, the “Behavior of gene caused by administration of chemical substance, Gene No. 4973” value ([1]; gene group (C), Unigene No. Rn.118529) was “−” and the “Behavior of gene caused by administration of chemical substance, Gene No. 4095” value ([1]; gene group (C), Unigene No. Rn.119024) was “−”. For the same compound, the “Behavior of gene caused by administration of chemical substance, Gene No. 1334” value [1, 3] was “−”, the “Behavior of gene caused by administration of chemical substance, Gene No. 6620” value [1, 3] was “−” and the “Behavior of gene caused by administration of chemical substance, Gene No. 6303” value ([1]; gene group (C), Unigene No. Rn.123063) was “−”. The “Behavior of gene caused by administration of chemical substance, Gene No. 5878” value ([1]; gene group (C), Unigene No. Rn.143213) was “−”, the “Behavior of gene caused by administration of chemical substance, Gene No. 1131” value ([1]; gene group (C), Unigene No. Rn.144946) was “−” and the “Behavior of gene caused by administration of chemical substance, Gene No. 1562” value ([1]; gene group (C), Unigene No. Rn.14744) was “−”. For the same compound, the “Behavior of gene caused by administration of chemical substance, Gene No. 1741” value ([1]; gene group (C), Unigene No. Rn.1647) was “−”, the “Behavior of gene caused by administration of chemical substance, Gene No. 893” value ([1]; gene group (C), Unigene No. Rn.164817) was “−” and the “Behavior of gene caused by administration of chemical substance, Gene No. 6026” value ([1]; gene group (C), Unigene No. Rn.167685) was “−”. For the same compound, the “Behavior of gene caused by administration of chemical substance, Gene No. 154” value ([1]; gene group (C), Unigene No. Rn.185941) was “−”, the “Behavior of gene caused by administration of chemical substance, Gene No. 1993” value ([1]; gene group (C), Unigene No. Rn.18728) was “−” and the “Behavior of gene caused by administration of chemical substance, Gene No. 813” value ([1]; gene group (C), Unigene No. Rn.201760) was “−”. For the same compound, the “Behavior of gene caused by administration of chemical substance, Gene No. 2494” value ([1]; gene group (C), Unigene No. Rn.23969) was “+”, the “Behavior of gene caused by administration of chemical substance, Gene No. 2546” value ([1]; gene group (C), Unigene No. Rn.24561) was “−” and the “Behavior of gene caused by administration of chemical substance, Gene No. 3776” value ([1]; gene group (C), Unigene No. Rn.43232) was “−”. For the same compound, the “Behavior of gene caused by administration of chemical substance, Gene No. 3929” value ([1]; gene group (C), Unigene No. Rn.4620) was “−”, the “Behavior of gene caused by administration of chemical substance, Gene No. 1119” value ([1]; gene group (C), Unigene No. Rn.9757) was “−” and the “Behavior of gene caused by administration of chemical substance, Gene No. 6742” value ([1]; gene group (C), Unigene No. Rn.9779) was “−”. The “Behavior of gene caused by administration of chemical substance, Gene No. 5634” value ([1]; gene group (C), Unigene No. Rn.9862) was “−” and the “Behavior of gene caused by administration of chemical substance, Gene No. 5726” value ([1]; gene group (D), Unigene No. Rn.9939) was “−”.
